Active and inactive are the calls of the source. No cut-off for these calls is given here.
Columns and labels:
[1] = molecular target: Prohibitin-2 (Homo sapiens) (UniProt Q99623); test: Binding affinity to PHB2 in human HBL cells assessed as LC3-2 accumulation at 10 uM after 24 in presence of autophagy inhibitor PIK-3 by Western blot analysis; format: cell-based
[2] = molecular target: Prohibitin-2 (Homo sapiens) (UniProt Q99623); test: Downregulation of PHB2 in human HL60 cells at 0.1 to 10 uM after 24 hrs by Western blot analysis; format: cell-based
[3] = molecular target: Prohibitin-2 (Homo sapiens) (UniProt Q99623); test: Binding affinity to PHB2 in human HBL cells assessed as LC3-2 accumulation after 24 to 48 hrs by Western blot analysis; format: cell-based
[4] = molecular target: T1, Prohibitin 1 (Homo sapiens) (UniProt P35232); test: Downregulation of PHB1 in human HL60 cells at 0.1 to 10 uM after 24 hrs by Western blot analysis; format: cell-based
T1 sequence (whole entry): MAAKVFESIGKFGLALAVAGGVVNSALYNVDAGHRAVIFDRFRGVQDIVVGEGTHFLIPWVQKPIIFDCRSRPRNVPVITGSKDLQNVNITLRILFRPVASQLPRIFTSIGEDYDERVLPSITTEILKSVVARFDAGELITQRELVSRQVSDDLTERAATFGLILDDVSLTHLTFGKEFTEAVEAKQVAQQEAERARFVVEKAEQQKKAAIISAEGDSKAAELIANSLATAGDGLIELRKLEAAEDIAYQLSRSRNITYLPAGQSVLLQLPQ

[5] = molecular target: Prohibitin-2 (Homo sapiens) (UniProt Q99623); test: Downregulation of PHB2 in human MM162 cells at 0.1 to 10 uM after 24 hrs by Western blot analysis; format: cell-based
[6] = molecular target: RAC-alpha serine/threonine-protein kinase (Homo sapiens) (UniProt P31749); test: Inhibition of Akt phosphorylation in human MM043 cells at 0.1 to 10 uM after 24 hrs by Western blot analysis; format: cell-based
Chain of RAC-alpha serine/threonine-protein kinase (Homo sapiens) (P31749 whole entry): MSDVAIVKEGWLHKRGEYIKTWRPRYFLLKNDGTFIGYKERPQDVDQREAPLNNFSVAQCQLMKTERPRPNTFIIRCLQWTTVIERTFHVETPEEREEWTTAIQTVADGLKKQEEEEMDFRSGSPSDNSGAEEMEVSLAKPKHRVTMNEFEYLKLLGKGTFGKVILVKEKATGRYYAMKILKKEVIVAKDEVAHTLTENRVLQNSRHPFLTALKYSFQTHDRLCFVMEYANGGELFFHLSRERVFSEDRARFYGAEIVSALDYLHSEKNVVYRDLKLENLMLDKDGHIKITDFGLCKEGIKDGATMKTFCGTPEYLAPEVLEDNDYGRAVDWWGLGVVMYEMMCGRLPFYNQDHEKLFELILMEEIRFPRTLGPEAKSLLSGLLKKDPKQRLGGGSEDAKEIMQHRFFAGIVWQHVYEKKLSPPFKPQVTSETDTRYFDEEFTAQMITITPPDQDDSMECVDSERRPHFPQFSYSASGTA

Homo sapiens [7] = species on record: Homo sapiens; test: Induction of apoptosis in human MM043 cells at 1 to 10 uM after 48 hrs by Annexin V-PE/7-AAD staining based flow cytometry; format: functional, cell-based
[8] = molecular target: Prohibitin-2 (Homo sapiens) (UniProt Q99623); test: Binding affinity to PHB2 in human HL60 cells assessed as upregulation of ERK phosphorylation at 0.1 uM after 24 hrs by Western blot analysis; format: cell-based
[9] = molecular target: RAC-alpha serine/threonine-protein kinase (Homo sapiens) (UniProt P31749); test: Inhibition of Akt phosphorylation in human MM162 cells at 0.1 to 10 uM after 24 hrs by Western blot analysis; format: cell-based
KB = test: Inhibition of cell proliferation in human KB cells after 72 hrs by MTS assay; format: functional, cell-based
[10] = molecular target: Prohibitin-2 (Homo sapiens) (UniProt Q99623); test: Downregulation of PHB2 in human HBL cells at 0.1 to 10 uM after 24 to 48 hrs by Western blot analysis; format: cell-based
Homo sapiens [11] = species on record: Homo sapiens; test: Induction of apoptosis in human MM162 cells at 1 to 10 uM after 48 hrs by Annexin V-PE/7-AAD staining based flow cytometry; format: functional, cell-based
[12] = molecular target: Prohibitin-2 (Homo sapiens) (UniProt Q99623); test: Induction of PHB2-mediated melanogenesis in human HBL cells assessed as pigmentation at 10 uM after 10 days relative to control; format: cell-based
[13] = molecular target: Prohibitin-2 (Homo sapiens) (UniProt Q99623); test: Induction of PHB2-mediated melanogenesis in human HBL cells assessed as pigmentation at 1 uM after 10 days relative to control; format: cell-based
[14] = molecular target: RAC-alpha serine/threonine-protein kinase (Homo sapiens) (UniProt P31749); test: Inhibition of Akt phosphorylation in human HBL cells at 0.1 to 10 uM after 24 to 48 hrs by Western blot analysis; format: cell-based
[15] = molecular target: Prohibitin-2 (Homo sapiens) (UniProt Q99623); test: Binding affinity to PHB2 in human HBL cells assessed as feedback mechanism based inhibition of ERK phosphorylation at 0.1 to 10 uM after 48 hrs by Western blot analysis; format: cell-based
[16] = molecular target: Prohibitin-2 (Homo sapiens) (UniProt Q99623); test: Induction of PHB2-mediated melanogenesis in human HBL cells assessed as pigmentation at 10 uM after 10 days in presence of autophagy activator HD1; format: cell-based
[17] = molecular target: Prohibitin-2 (Homo sapiens) (UniProt Q99623); test: Binding affinity to PHB2 in human HBL cells assessed as upregulation of MITF protein expression at 0.1 to 10 uM after 24 to 48 hrs by Western blot analysis; format: cell-based
[18] = molecular target: Prohibitin-2 (Homo sapiens) (UniProt Q99623); test: Binding affinity to PHB2 in human HBL cells assessed as upregulation of MITF protein expression at 10 uM after 24 in presence of autophagy activator HD1 by Western blot analysis; format: cell-based
[19] = molecular target: Prohibitin-2 (Homo sapiens) (UniProt Q99623); test: Induction of PHB2-mediated melanogenesis in human HBL cells assessed as pigmentation at 10 uM after 10 days in presence of autophagy inhibitor PIK-3; format: cell-based
[20] = molecular target: Prohibitin-2 (Homo sapiens) (UniProt Q99623); test: Binding affinity to PHB2 in human HL60 cells assessed as LC3-2 accumulation at 0.1 to 10 uM after 24 hrs by Western blot analysis; format: cell-based
[21] = molecular target: Prohibitin-2 (Homo sapiens) (UniProt Q99623); test: Induction of PHB2-mediated melanogenesis in human MM162 cells assessed as pigmentation at 1 to 10 uM after 10 days relative to control; format: cell-based
HL-60 = test: Inhibition of cell proliferation in human HL60 cells after 72 hrs by MTS assay; format: functional, cell-based; settings: HL-60, 72 h
[22] = molecular target: T1, Prohibitin 1 (Homo sapiens); test: Downregulation of PHB1 in human HBL cells at 0.1 to 10 uM after 24 to 48 hrs by Western blot analysis; format: cell-based
[23] = molecular target: Prohibitin-2 (Homo sapiens) (UniProt Q99623); test: Downregulation of PHB2 in human MM043 cells at 0.1 to 10 uM after 24 hrs by Western blot analysis; format: cell-based
HBL = test: Induction of apoptosis in human HBL cells at 1 to 10 uM after 48 hrs by Annexin V-PE/7-AAD staining based flow cytometry; format: functional, cell-based
[24] = molecular target: Prohibitin-2 (Homo sapiens) (UniProt Q99623); test: Binding affinity to PHB2 in human HBL cells assessed as LC3-2 accumulation at 10 uM after 24 in presence of autophagy activator HD1 by Western blot analysis; format: cell-based
[25] = molecular target: Prohibitin-2 (Homo sapiens) (UniProt Q99623); test: Binding affinity to PHB2 in human HBL cells assessed as upregulation of ERK phosphorylation at 0.1 to 10 uM after 24 hrs by Western blot analysis; format: cell-based
[26] = molecular target: RAC-alpha serine/threonine-protein kinase (Homo sapiens) (UniProt P31749); test: Inhibition of Akt phosphorylation in human HL60 cells after 24 to 48 hrs by Western blot analysis; format: cell-based
[27] = molecular target: Prohibitin-2 (Homo sapiens) (UniProt Q99623); test: Binding affinity to PHB2 in human HBL cells assessed as upregulation of MITF protein expression at 10 uM after 24 in presence of autophagy inhibitor PIK-3 by Western blot analysis; format: cell-based
[28] = molecular target: T1, Prohibitin 1 (Homo sapiens); test: Downregulation of PHB1 in human MM162 cells at 0.1 to 10 uM after 24 hrs by Western blot analysis; format: cell-based
[29] = molecular target: Prohibitin-2 (Homo sapiens) (UniProt Q99623); test: Induction of PHB2-mediated melanogenesis in human MM043 cells assessed as pigmentation at 1 to 10 uM after 10 days relative to control; format: cell-based
[30] = molecular target: Prohibitin-2 (Homo sapiens) (UniProt Q99623); test: Binding affinity to PHB2 in human HBL cells assessed as upregulation of tyrosinase protein expression at 0.1 to 10 uM after 24 to 48 hrs by Western blot analysis; format: cell-based
[31] = molecular target: T1, Prohibitin 1 (Homo sapiens); test: Downregulation of PHB1 in human MM043 cells at 0.1 to 10 uM after 24 hrs by Western blot analysis; format: cell-based
[32] = molecular target: T1, Prohibitin 1 (Homo sapiens); test: Binding affinity to PHB1 in human HBL cells using affigel conjugated compound after overnight incubation by pull down assay; format: cell-based

Chain of Prohibitin-2 (Homo sapiens) (Q99623 whole entry): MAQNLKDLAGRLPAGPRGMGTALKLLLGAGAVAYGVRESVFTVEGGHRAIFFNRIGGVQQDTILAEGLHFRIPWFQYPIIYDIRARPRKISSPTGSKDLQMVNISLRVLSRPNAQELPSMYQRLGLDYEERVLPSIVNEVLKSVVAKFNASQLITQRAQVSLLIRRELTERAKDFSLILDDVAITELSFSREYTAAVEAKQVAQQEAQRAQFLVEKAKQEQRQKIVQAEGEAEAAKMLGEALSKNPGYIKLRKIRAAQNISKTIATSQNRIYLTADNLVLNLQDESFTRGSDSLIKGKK

Row | Activity [2] | Activity [3] | Activity [4] | Activity [8] | IC50 (KB) | Activity [10] | fold change (FC) [12] | fold change (FC) [13] | inhibition [14] | inhibition [15] | Activity [17] | Activity [20] | Activity [21] | IC50 (HL-60) | Activity [22] | Activity [25] | inhibition [26] | Activity [29] | Activity [30] | SMILES | other results
1 | Active | Dose-dependent effect | Active | Active | 46 µM | Active | 2.01 | 1.15 | Active | Active | Active | Active | Active | 25 µM | Active | Active | Dose-dependent effect | Active | Active | Fc1cccc(CNc2nc(Oc3c(F)c(F)c(F)c(F)c3F)nc(N3CCC(N4CCCCC4)CC3)n2)c1 | Activity [1]: inactive; Activity [5]: Active; inhibition [6]: Active; Activity (Homo sapiens [7]): Active; inhibition [9]: Active; Activity (Homo sapiens [11]): Active; Activity [16]: Active; Activity [18]: Active; Activity [19]: inactive; Activity [23]: Active; Activity (HBL): Active; Activity [24]: Active; Activity [27]: inactive; Activity [28]: Active; Activity [31]: Active
2 |  |  |  |  |  |  | 1.79 | 0.87 |  |  |  |  |  |  |  |  |  |  |  | Fc1c(F)c(F)c(Oc2nc(N3CCC(N4CCCCC4)CC3)nc(N3CCCc4ccccc4C3)n2)c(F)c1F | Activity [32]: Active
3 | Active | Dose-dependent effect | Active | Active | 63 µM | Active | 2.23 | 0.89 | Active | Active | Active | Active | Active | 95 µM | Active | Active | Dose-dependent effect | Active | Active | CN(C)CCNc1nc(Oc2c(F)c(F)c(F)c(F)c2F)nc(N2CCCc3ccccc3C2)n1 | 

— ChEMBL document CHEMBL4270538, “Targeting prohibitin with small molecules to promote melanogenesis and apoptosis in melanoma cells” (Eur J Med Chem, 2018)
